Measured values: ChEMBL document CHEMBL4813950, “Comparing the efficacy and selectivity of Ck2 inhibitors. A phosphoproteomics approach” (Eur J Med Chem, 2021)
Calls of active or inactive are those of the source. No cut-off for these calls is given here.

How the values were obtained:
[1] = target: Band 4.1-like protein 1 (Mus musculus) (UniProt Q9Z2H5); test: Inhibition of Epb41l1in mouse C2C12 cells assessed as reduction in phospho-sites occupancy at 4 uM after 5 hrs by SILAC based LC-MS/MS analysis relative to control; format: cell-based
[2] = target: Catenin alpha-1 (Mus musculus) (UniProt P26231); test: Inhibition of catenin alpha-1 in mouse C2C12 cells assessed as reduction in phospho-sites occupancy at 4 uM after 5 hrs by SILAC based LC-MS/MS analysis relative to control; format: cell-based
[3] = target: Eukaryotic translation initiation factor 2 subunit 2 (Mus musculus) (UniProt Q99L45); test: Inhibition of eukaryotic translation initiation factor 2 subunit 2 in mouse C2C12 cells assessed as reduction in phospho-sites occupancy at 4 uM after 5 hrs by SILAC based LC-MS/MS analysis relative to control; format: cell-based
[4] = target: SWI/SNF-related matrix-associated actin-dependent regulator of chromatin subfamily A containing DEAD/H box 1 (Mus musculus) (UniProt Q04692); test: Inhibition of Smarcad1 in mouse C2C12 cells assessed as reduction in phospho-sites occupancy at 4 uM after 5 hrs by SILAC based LC-MS/MS analysis relative to control; format: cell-based
[5] = target: E3 ubiquitin-protein ligase NEDD4 (Mus musculus) (UniProt P46935); test: Inhibition of Nedd4 in mouse C2C12 cells assessed as reduction in phospho-sites occupancy at 4 uM after 5 hrs by SILAC based LC-MS/MS analysis relative to control; format: cell-based
[6] = target: E3 ubiquitin-protein ligase Praja-1 (Mus musculus) (UniProt O55176); test: Inhibition of Pja1 in mouse C2C12 cells assessed as reduction in phospho-sites occupancy at 4 uM after 5 hrs by SILAC based LC-MS/MS analysis relative to control; format: cell-based
[7] = target: Nucleolar RNA helicase 2 (Mus musculus) (UniProt Q9JIK5); test: Inhibition of Ddx21 in mouse C2C12 cells assessed as reduction in phospho-sites occupancy at 4 uM after 5 hrs by SILAC based LC-MS/MS analysis relative to control; format: cell-based
[8] = target: tRNA (guanine(26)-N(2))-dimethyltransferase (Mus musculus) (UniProt Q3TX08); test: Inhibition of Trmt1 in mouse C2C12 cells assessed as reduction in phospho-sites occupancy at 4 uM after 5 hrs by SILAC based LC-MS/MS analysis relative to control; format: cell-based
[9] = target: LIM domain and actin-binding protein 1 (Mus musculus) (UniProt Q9ERG0); test: Inhibition of Lima1 in mouse C2C12 cells assessed as reduction in phospho-sites occupancy at 4 uM after 5 hrs by SILAC based LC-MS/MS analysis relative to control; format: cell-based
[10] = target: Sequestosome-1 (Mus musculus) (UniProt Q64337); test: Inhibition of Sequestosome-1 in mouse C2C12 cells assessed as reduction in phospho-sites occupancy at 4 uM after 5 hrs by SILAC based LC-MS/MS analysis relative to control; format: cell-based
[11] = target: Small ubiquitin-related modifier 1 (Mus musculus) (UniProt P63166); test: Inhibition of Sumo1 in mouse C2C12 cells assessed as reduction in phospho-sites occupancy at 4 uM after 5 hrs by SILAC based LC-MS/MS analysis relative to control; format: cell-based
[12] = target: Casein kinase 2 (Mus musculus) (UniProt Q60737+P67871+O54833+Q8CH19); test: Inhibition of CK2 in mouse C2C12 cells assessed as reduction in Akt phosphorylation at S129 residues at 1 to 4 uM by Western blot analysis; format: cell-based; settings: dose 1-4 µM
[13] = target: Protein transport protein Sec31A (Mus musculus) (UniProt Q3UPL0); test: Inhibition of Sec31a in mouse C2C12 cells assessed as reduction in phospho-sites occupancy at 4 uM after 5 hrs by SILAC based LC-MS/MS analysis relative to control; format: cell-based
[14] = target: Serine/threonine-protein phosphatase 6 regulatory subunit 3 (Mus musculus) (UniProt Q922D4); test: Inhibition of Ppp6r3 in mouse C2C12 cells assessed as reduction in phospho-sites occupancy at 4 uM after 5 hrs by SILAC based LC-MS/MS analysis relative to control; format: cell-based
[15] = target: Bcl-2-associated transcription factor 1 (Mus musculus) (UniProt Q8K019); test: Inhibition of Bcl-2-associated transcription factor 1 in mouse C2C12 cells assessed as reduction in phospho-sites occupancy at 4 uM after 5 hrs by SILAC based LC-MS/MS analysis relative to control; format: cell-based
[16] = target: Serine/arginine repetitive matrix protein 1 (Mus musculus) (UniProt Q52KI8); test: Inhibition of Srrm1 in mouse C2C12 cells assessed as reduction in phospho-sites occupancy at 4 uM after 5 hrs by SILAC based LC-MS/MS analysis relative to control; format: cell-based
[17] = target: Dual E2 ubiquitin-conjugating enzyme/E3 ubiquitin-protein ligase BIRC6 (Mus musculus) (UniProt O88738); test: Inhibition of Birc6 in mouse C2C12 cells assessed as reduction in phospho-sites occupancy at 4 uM after 5 hrs by SILAC based LC-MS/MS analysis relative to control; format: cell-based
[18] = target: EH domain-containing protein 2 (Mus musculus) (UniProt Q8BH64); test: Inhibition of Ehd2 in mouse C2C12 cells assessed as reduction in phospho-sites occupancy at 4 uM after 5 hrs by SILAC based LC-MS/MS analysis relative to control; format: cell-based
[19] = target: Chaperone Ric-8A (Mus musculus) (UniProt Q3TIR3); test: Inhibition of Ric8a in mouse C2C12 cells assessed as reduction in phospho-sites occupancy at 4 uM after 5 hrs by SILAC based LC-MS/MS analysis relative to control; format: cell-based
[20] = target: Importin subunit alpha-4 (Mus musculus) (UniProt O35344); test: Inhibition of Kpna3 in mouse C2C12 cells assessed as reduction in phospho-sites occupancy at 4 uM after 5 hrs by SILAC based LC-MS/MS analysis relative to control; format: cell-based
[21] = target: Centrosomal protein of 170 kDa (Mus musculus) (UniProt Q6A065); test: Inhibition of Cep170 in mouse C2C12 cells assessed as reduction in phospho-sites occupancy at 4 uM after 5 hrs by SILAC based LC-MS/MS analysis relative to control; format: cell-based
[22] = target: Host cell factor 1 (Mus musculus) (UniProt Q61191); test: Inhibition of host cell factor 1 in mouse C2C12 cells assessed as reduction in phospho-sites occupancy at 4 uM after 5 hrs by SILAC based LC-MS/MS analysis relative to control
[23] = target: Lamina-associated polypeptide 2, isoforms beta/delta/epsilon/gamma (Mus musculus) (UniProt Q61029); test: Inhibition of LAP2B epsilon in mouse C2C12 cells assessed as reduction in phospho-sites occupancy at 4 uM after 5 hrs by SILAC based LC-MS/MS analysis relative to control; format: cell-based
[24] = target: Serine/threonine-protein kinase PAK 1 (Mus musculus) (UniProt O88643); test: Inhibition of Pak1 in mouse C2C12 cells assessed as reduction in phospho-sites occupancy at 4 uM after 5 hrs by SILAC based LC-MS/MS analysis relative to control; format: cell-based

fold change (FC) [1]: 2.85
fold change (FC) [2]: 1.59
fold change (FC) [3]: 1.6
fold change (FC) [4]: 1.64
fold change (FC) [5]: 5.83
fold change (FC) [6]: 2.53
fold change (FC) [7]: 1.66
fold change (FC) [8]: 1.86
fold change (FC) [9]: 2.39
fold change (FC) [10]: 2.35
fold change (FC) [11]: 1.75
inhibition [12]: Active
fold change (FC) [13]: 2.98
fold change (FC) [14]: 1.75
fold change (FC) [15]: 1.58
fold change (FC) [16]: 2.36
fold change (FC) [17]: 1.62
fold change (FC) [18]: 2.18
fold change (FC) [19]: 1.93
fold change (FC) [20]: 3.44
fold change (FC) [21]: 1.86
fold change (FC) [22]: 1.56
fold change (FC) [23]: 3.86
fold change (FC) [24]: 1.96
SMILES: COc1cc(/C=N/n2c(SC)nnc2-c2ccccc2)c(Br)cc1O
